Results: patent US20260294845A1, “Uses of Adrenalone to Manage Cardiotoxicity or Cardiovascular Disorders” (Emory University, priority 2023, published 2026)
Entries after “also recorded” stand apart in the source; their conditions may differ.

Tests used:
hiPSC-CMs [1] = settings: carfilzomib; Forghani et al., 2021; cited from earlier work
hiPSC-CMs [2] = experiment: Cell viability of hiPSC-CMs treated with carfilzomib with or without 4H10 (CellTiter-Blue); type: cell-based, human; settings: carfilzomib 5 μM alone, 24 h, IMR-90 hiPSC-CMs, compared with DMSO
Procedure: Cell viability was analyzed after IMR-90 hiPSC-CMs were treated with carfilzomib (CFZ) with or without 4H10 for 24 hours. (n=5 cultures).
(§1) A human induced pluripotent cell line (hiPSC line IMR90™, WiCell Research Institute) was fed daily on Matrigel™-coated plates with a defined medium for hiPSC culture, mTeSR1 medium. For CM differentiation, hiPSCs were induced using a growth factor-driven differentiation protocol as reported in Jha et al. Efficient differentiation of cardiomyocytes from human pluripotent stem cells with growth factors. Methods Mol Biol, 2015, 1299, 115-131. On the day of induction (day 0), medium was replaced with RPMI 1640 medium supplemented with 2% B27 minus insulin (a cell culture supplement) containing 100 ng/ml activin A. After induction for 24 h, the medium was replaced with fresh RPMI supplemented with 2% B27 minus insulin containing 10 ng/ml BMP4. From day 4 of differentiation, the medium was replaced with RPMI supplemented with 2% B27. On day 5, the cells were dissociated and reseeded into AggreWell400™ plates to acquire cardiac spheres. After 24 h, the cardiac spheres formed were collected and transferred to low-adhesion dishes for suspension culture. The medium was changed every other day. Cardiac spheres typically started beating spontaneously by day 7 to 9.
Cardiomyocytes derived from human pluripotent stem cells (hiPSC-CMs) were provide a new platform for the studies of cancer drug-induced side effects and therapies. Using these cells, lead molecules were identified indicating protective properties on cardiomyocytes from the toxic effect of chemotherapy agents and ethanol (EtOH). […] Oxidative stress is a common molecular mechanism for cardiotoxicity induced by chemotherapy including proteosome inhibitors.
Consistently, treatment of hiPSC-CMs induced cell death and cytotoxicity. To examine if 4H10 could protect cardiomyocytes from carfilzomib-induced cytotoxicity, hiPSC-CMs were treated with carfilzomib at 5 μM alone or together with 4H10 at various concentrations for 24 h and then examined cell viability using the CellTiter-Blue Cell Viability Assay. Cells treated with DMSO (vehicle) were used as a control.

hiPSC-CMs [3] = experiment: MitoTracker Red staining (mitochondrial content and activity) of carfilzomib-treated hiPSC-CMs, high-content imaging; type: cell-based, human; settings: carfilzomib alone, 24 h, IMR-90 hiPSC-CMs
Procedure: MitoTracker™ Red staining was performed in IMR-90 hiPSC-CMs treated with CFZ with or without 4H10 for 24 hours.
as §1
Mitochondria play a crucial role in energy production, cellular metabolism, and the regulation of cell death. Experiments indicate carfilzomib induces mitochondrial dysfunction in hiPSC-CMs. To assess the potential mitigating effects of 4H10 on carfilzomib-induced mitochondrial dysfunction, hiPSC-CMs were treated with carfilzomib alone or co-treated with 4H10 at various concentrations. Mitochondria were then visualized using MitoTracker™ Red dyes, which can accumulate in active mitochondria and allow for the measurement of mitochondrial content and activity in live cells.

proteasome [4] = experiment: Proteasome activity in RPMI8226 cells after carfilzomib with or without 4H10; type: cell-based; settings: carfilzomib, 24 h, compared to DMSO
Procedure: (§2) (top) Proteasome activity of IMR-90 hiPSC-CMs was measured after the cells were treated with CFZ with or without 4H10 for 24 hours. (bottom, right, left) Proteasome activity and cell viability of RPMI8226 cells (cancer cells) were measured after the cells were treated with CFZ with or without 4H10 for 24 hours.
(§3) Experiments were designed to determine the effects of carfilzomib and 4H10 on proteasome activity and cell viability of RPMI8226 cell line, which has been investigated for the efficacy tests of carfilzomib in […].

patients = settings: among the proteosome inhibitors; cited from earlier work
RPMI8226 cells = experiment: Cell viability of RPMI8226 cells after carfilzomib with or without 4H10; type: cell-based; settings: carfilzomib, 24 h, compared to DMSO
Procedure: as §2, §3

hiPSC-CMs [5] = experiment: Effects of chemotherapeutic agents on function of hiPSC-CMs; type: cell-based, human; settings: carfilzomib treatment
hiPSC-CMs [6] = experiment: Intracellular oxidative stress (ROS) of carfilzomib-treated hiPSC-CMs, DCFDA/H2DCFDA assay; type: cell-based, human; settings: carfilzomib 5 μM alone, 24 h, SCVI hiPSC-CMs
Procedure: The quantification of oxidative stress was performed using DCFDA staining of SCVI hiPSC-CMs treated with Cfz with or without 4H10 for 24 hours.
The induction of oxidative stress is a crucial mechanism through which proteasome inhibitors induce apoptosis. To investigate if 4H10 could alleviate carfilzomib-induced increase of oxidative stress in cardiomyocytes, hiPSC-CMs were exposed to carfilzomib at 5 μM alone or together with 4H10 at various concentrations for 24 h. The production of cellular reactive oxygen species (ROS) was then measured using DCFDA/H2DCFDA assay kit.

proteasome [7] = experiment: Proteasome activity in hiPSC-CMs after carfilzomib with or without 4H10; type: cell-based, human; settings: carfilzomib, 24 h, IMR-90 hiPSC-CMs, compared with DMSO
Procedure: as §2
The proteasome, responsible for the regulated degradation of proteins, is a key cellular component targeted by carfilzomib as part of its mechanism of action in cancer therapy. Therefore, in addition to validation of cardioprotective effects of 4H10 on cell viability and mitochondrial function, it is crucial to examine if 4H10 compromises the proteasome inhibition efficacy of carfilzomib.

[8] = carfilzomib, serum; read-out: maximum (or peak) serum concentration, Cmax; cited from earlier work

- Ca^2+ handling of hiPSC-CMs (hiPSC-CMs [5]): negatively affects
- contractility of hiPSC-CMs (hiPSC-CMs [5]): negatively affects
- mitochondrial function of hiPSC-CMs (hiPSC-CMs [5]): negatively affects
- traction forces of hiPSC-CMs (hiPSC-CMs [5]): negatively affects
SMILES: CC(C)C[C@H](NC(=O)[C@H](CCc1ccccc1)NC(=O)CN1CCOCC1)C(=O)N[C@@H](Cc1ccccc1)C(=O)N[C@@H](CC(C)C)C(=O)[C@@]1(C)CO1 [carfilzomib]
- molecular and functional alterations of hiPSC-CMs (hiPSC-CMs [1]): causes molecular and functional alterations
- cell viability (cytotoxicity) after carfilzomib (hiPSC-CMs [2]): caused cytotoxicity; also recorded: significant decrease in cell viability
- mitochondrial mass and activity (MitoTracker Red fluorescence intensity) (hiPSC-CMs [3]): reduction in mitochondrial mass and activity
- proteasome activity in RPMI8226 cells (proteasome [4]): suppressed
- cardiotoxicity in clinic (patients): highest cardiotoxicity in clinic
- viability of RPMI8226 cells (RPMI8226 cells): significantly decreased the viability
- DCFDA fluorescence intensity (oxidative stress) (hiPSC-CMs [6]): significant increase in DCFDA fluorescence intensity
- cellular proteasome activity (proteasome [7]): significant decrease in cellular proteasome activity
- Cmax [8]: 5.88 µM
